Measured values: patent US12285403B2, “A2-73 as a therapeutic for insomnia, anxiety and agitation” (Anavex Life Sciences Corp., priority 2016, dated 2025)

Assays:
Format in all cases: in vivo, human
[1] = system: mild-to-moderate Alzheimer's disease patients; assay: MMSE (Mini-Mental State Examination), Phase 2a study; settings: over 31 weeks; for MMSE scores: oral daily 10 mg to 50 mg, FIG. 1
From the text: (§1) Although the present invention calls for methods of treating insomnia, some primary sleep disorders, such as circadian rhythm disorders, advanced sleep phase disorder also termed sleep onset insomnia, mid-nocturnal insomnia, early morning insomnia, hyper insomnia, trouble staying asleep, jet lag, narcolepsy, non-24-hour sleep-wake syndrome, include insomnia as a component of the disorder. Thus, the term “insomnia” should be understood to also include the insomnia component of these disorders. • Aβ—Amyloid beta is abbreviated as Aβ. • AD—Alzheimer's disease is abbreviated as AD. • ADCS-ADL—Alzheimer's Disease Cooperative Study Activities of Daily Living Inventory is abbreviated as ADCS-ADL. • Cogstate tasks—Cogstate tasks refers to Cogstate cognitive tests (Cogstate Alzheimer's Battery) using visual and verbal stimuli to ensure assessment. These tests assess cognitive function in adults with mild cognitive impairment and clinically-diagnosed Alzheimer's disease. The test is culture-neutral and not limited by a subject or participant's level of education. A Cogstate battery comprises a number of individual tests—each designed to test a specific area of cognition. When a number of these individual tests are put together to form a test battery, a more complete picture of a person's cognitive state can be defined. • DPZ—Donepezil is abbreviated as DPZ. • EEG/ERP—EEG/ERP is a reference to ERP measured via EEG. • ERP—Event-related potential is abbreviated as ERP. • HAM-D—Hamilton Depression Rating Scale is abbreviated as HAM-D. • MCI—Mild cognitive impairment is abbreviated as MCI. • MMSE—MMSE refers to the Mini-Mental State Examination (MMSE) or Folstein test. This test is a 30-point questionnaire that is used extensively in clinical and research settings to measure cognitive impairment. • SWS—Slow-wave sleep is abbreviated as SWS. • WASO.—Waking after sleep onset is abbreviated WASO.
(§2) Efficacy data is presented through 31 week from the randomized (into different treatment regimens) open-label study with ANAVEX 2-73 oral daily dosing ranging from 10 mg to 50 mg. […]

[2] = system: mild-to-moderate Alzheimer's disease patients; assay: ADCS-ADL (Activities of Daily Living), Phase 2a study; settings: for ADCS-ADL scores: through week 31, oral daily 10 mg to 50 mg, FIG. 2
From the text: as §1, §2

[3] = Systolic blood pressure monitored over the first 25 days of dosing in AD subjects
Procedure: An additional benefit of the therapeutic regimen disclosed herein is the beneficial control of systolic blood pressure in AD subjects taking daily oral dosages of A2-73 of from about 10 mg to about 50 mg. Systolic blood pressure was monitored over the first 25 days of dosing. A1-41 and A19-144 are similarly useful therapeutics.

[4] = Safety, tolerability and patient retention, Phase 2a study
From the text: The safety and efficacy of A2-73 has been studied Phase 2a Study in mild-moderate Alzheimer's disease patients. […] Without being bound by any particular theory, it is believed that A2-73 activates the stress-reducing and survival protein, the Sigma-1 receptor. The data of Table 1 is from an open-label, clinical trial, performed on a group of 30 mild-to-moderate AD patients (MMSE range 16-23, 40% female) on donepezil treatment, with […] 2-73. […]

[5] = listed as ANAVEX 2-73, hydrochloride

**Q.** What does the source list for `CN(C)CC1CCOC1(c1ccccc1)c1ccccc1.Cl` (centres unmarked) [A2-73, tetrahydro-N,N-dimethyl-2,2-diphenyl-3-furanmethanamine hydrochloride]?
**A.** MMSE scores ([1]; hydrochloride): maintained at the same level; MMSE scores [1, 5]: preserves average MMSE and ADCS-ADL scores; MMSE score, ANAVEX 2-73 alone vs ANAVEX 2-73 with DPZ (donepezil) ([1]; exploratory analysis, FIG. 5): no notable difference; ADCS-ADL score, ANAVEX 2-73 alone vs ANAVEX 2-73 with DPZ (donepezil) ([2]; over 31 weeks, exploratory analysis, FIG. 6): no notable difference; ADCS-ADL scores ([2]; hydrochloride): maintained at a constant level; ADCS-ADL scores [2, 5]: preserves average MMSE and ADCS-ADL scores; Change in mean systolic BP, baseline to Day 25 ([3]; Hypertension Stage 1: 140-159 mm Hg): −16 mm Hg; Day 25 Mean systolic BP ±SD ([3]; Hypertension Stage 1: 140-159 mm Hg, baseline 145 ± 3): 129 ± 12 mm Hg; Change in mean systolic BP, baseline to Day 25 ([3]; Hypertension Stage 2: 160-179 mm Hg): −22 mm Hg; Day 25 Mean systolic BP ±SD ([3]; Hypertension Stage 2: 160-179 mm Hg, baseline 170 ± 8): 148 ± 19 mm Hg; Change in mean systolic BP, baseline to Day 25 ([3]; Hypertensive crisis >180 mm Hg): −27 mm Hg; Day 25 Mean systolic BP ±SD ([3]; Hypertensive crisis >180 mm Hg, baseline 185 ± 0): 159 ± 43 mm Hg; Change in mean systolic BP, baseline to Day 25 ([3]; Pre Hypertension 120-139 mm Hg): −9 mm Hg; Day 25 Mean systolic BP ±SD ([3]; Pre Hypertension 120-139 mm Hg, baseline 131 ± 6): 122 ± 15 mm Hg; Change in mean systolic BP, baseline to Day 25 ([3]; baseline classification <120 mm Hg): 8 mm Hg; Day 25 Mean systolic BP ±SD ([3]; baseline classification <120 mm Hg, baseline 115 ± 2, oral daily 10-50 mg): 123 ± 11 mm Hg; Systolic blood pressure in subjects with high-normal systolic blood pressure ([3]; first 25 days of dosing): rose; Systolic blood pressure in hypertensive subjects ([3]; first 25 days of dosing, greater reduction for increasingly hypertensive subjects): significantly reduced; Adverse event: headache ([4]; 30 mg): 10%; Adverse event: mild dizziness ([4]; 30 mg): 5%; Changes in clinical labs and EKGs ([4]; 30 mg): no significant changes; Tolerability ([4]; 30 mg): well tolerated; Safety and tolerability/risk profile ([4]; 32 patients with mild-to-moderate AD, Phase 2a): favorable safety and tolerability/risk profile
